# Measurements published in US6465477B1, “Stable pharmaceutical composition” (Kowa Company, Ltd., priority 1997, dated 2002).
# Assay: Decomposition products of NK-104 and fluvastatin in aqueous solution of pH 3, analyzed by HPLC
# Assay type: physicochemical
# Settings: aqueous solution pH 3, 40° C.
# Procedure: Decomposition products of NK-104 were analyzed by HPLC after incubation for two days at 40° C. in aqueous solution of pH 3. […] The decomposition products of fluvastatin were also analyzed for comparison.
# The conditions under which NK-104 and Fluvastatine decomposition products were analyzed are as follows:
# HPLC system: Type LC-10 (Shimadz, Japan)
# Column: DEVELOSIL ODS-HG-5 (NOMURA CHEM., Japan)
# Mobil Phase: MeOH/0.02 mol/L phosphate buffer (pH 3)=7/3
# Sample: NK-104 or fluvastatin/pH 3/40° C., 2 days
# Detector: SPD-MLOAVP, UV 245 mm
smiles,measurement,setting,value
"O=C(O)C[C@H](O)C[C@H](O)/C=C/c1c(C2CC2)nc2ccccc2c1-c1ccc(F)cc1 [NK-104, (E)-3,5-dihydroxy-7-[4′-4 ″-fluorophehyl-2 ′-cyclopropyl-quinolin-3′-yl]-6-heptenoic acid]",Quantity of decomposition products,2 days,a small quantity of one type of decomposition product
same,Decomposition products (types),two days,"a single product, a lactonized form of NK-104"
